These are literature values, as cited in PMC3303928 (Bioorganic & medicinal chemistry, 2012).

For this data set the following is noted: animal tests, racemic mixtures (and their corresponding 3R,4R stereoisomers).

As for `Cc1cc(N)nc(C[C@H]2CNC[C@H]2NCCNCCc2cccc(F)c2)c1` [Compound 1], the “blood-brain barrier (BBB) penetration” value was “minimal”.

As for `Cc1cc(N)nc(C[C@H]2CNC[C@H]2OCCNCCc2cccc(F)c2)c1` [Compound 3], the “blood-brain barrier (BBB) penetration” value is on record as “minimal”.
